How the values were obtained:
RET = biological target: T1, RET (Homo sapiens, UniProt P07949); test: KINOMEscan profiling at […]; type: binding
T1 construct: kinase domain

KIT [1] = biological target: T2, KIT (Homo sapiens, UniProt P10721)
Target sequence in this assay (P10721 589-937 limits assumed): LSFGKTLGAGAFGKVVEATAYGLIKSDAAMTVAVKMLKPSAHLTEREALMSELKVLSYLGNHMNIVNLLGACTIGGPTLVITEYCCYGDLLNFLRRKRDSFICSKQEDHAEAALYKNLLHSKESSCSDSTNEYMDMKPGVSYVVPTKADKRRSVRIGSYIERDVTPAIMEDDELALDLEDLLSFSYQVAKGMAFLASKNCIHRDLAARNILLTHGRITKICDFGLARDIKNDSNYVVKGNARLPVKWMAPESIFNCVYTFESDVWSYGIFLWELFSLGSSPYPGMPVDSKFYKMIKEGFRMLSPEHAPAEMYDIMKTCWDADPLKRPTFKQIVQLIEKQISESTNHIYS

VEGFR2 = VEGFR2 (Homo sapiens, UniProt P35968); test: KINOMEscan profiling at […]; type: binding; design: gene KDR; kinase domain
Abl = biological target: T3, Abl (Homo sapiens, UniProt P00519); test: KINOMEscan profiling at […]; type: binding
T3 construct: gene ABL1; kinase domain
T3 sequence (P00519 242-493 limits assumed): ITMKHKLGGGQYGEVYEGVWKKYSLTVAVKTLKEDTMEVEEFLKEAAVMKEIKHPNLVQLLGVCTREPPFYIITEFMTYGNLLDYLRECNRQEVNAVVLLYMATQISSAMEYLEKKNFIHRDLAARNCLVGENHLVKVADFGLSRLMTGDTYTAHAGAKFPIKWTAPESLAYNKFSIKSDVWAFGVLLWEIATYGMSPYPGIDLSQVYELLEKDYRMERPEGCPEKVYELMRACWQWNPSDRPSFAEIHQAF

FLT3 [2] = biological target: T4, FLT3 (Homo sapiens, UniProt P36888); test: KINOMEscan profiling at […]; type: binding
T4 construct: kinase domain
T4 sequence (P36888 564-993 limits assumed): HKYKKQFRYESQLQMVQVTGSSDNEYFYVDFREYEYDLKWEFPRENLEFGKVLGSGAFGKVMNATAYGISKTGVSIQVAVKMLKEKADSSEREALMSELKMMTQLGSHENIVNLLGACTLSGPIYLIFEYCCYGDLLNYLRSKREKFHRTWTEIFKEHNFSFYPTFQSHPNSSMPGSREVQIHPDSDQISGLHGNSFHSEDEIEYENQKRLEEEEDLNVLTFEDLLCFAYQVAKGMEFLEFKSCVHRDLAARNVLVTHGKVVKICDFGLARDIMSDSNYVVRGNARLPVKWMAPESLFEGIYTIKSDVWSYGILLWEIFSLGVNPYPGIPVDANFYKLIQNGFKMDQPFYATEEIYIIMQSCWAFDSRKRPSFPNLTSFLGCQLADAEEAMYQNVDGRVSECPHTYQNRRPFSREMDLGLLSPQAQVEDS

PIM1 = PIM1 (Homo sapiens, UniProt P11309); test: biochemical; design: KINOMEscan (DiscoverX) competition binding screen of 97 human kinases, percent of control at 10 uM
PIM1, sequence (P11309 whole entry): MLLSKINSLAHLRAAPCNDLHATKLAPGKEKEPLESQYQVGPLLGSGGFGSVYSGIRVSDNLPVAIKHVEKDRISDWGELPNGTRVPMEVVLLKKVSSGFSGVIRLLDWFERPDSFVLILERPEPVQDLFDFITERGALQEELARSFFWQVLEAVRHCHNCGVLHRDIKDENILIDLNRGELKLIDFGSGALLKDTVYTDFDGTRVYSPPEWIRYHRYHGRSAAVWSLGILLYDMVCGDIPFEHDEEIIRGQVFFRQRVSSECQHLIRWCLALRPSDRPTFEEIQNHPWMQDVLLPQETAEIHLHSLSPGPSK
Procedure: (§1) The KINOMEscan profiling of the inhibitors were performed as per directions by the manufacturer (DiscoverX) against a panel of human protein kinases.

AXL [3] = biological target: AXL (Homo sapiens, UniProt P30530); test: biochemical; design: KINOMEscan (DiscoverX) competition binding screen of 97 human kinases, percent of control at 10 uM; details: binding competition, % of control; binder
Procedure: as §1
Target sequence in this assay (P30530 whole entry): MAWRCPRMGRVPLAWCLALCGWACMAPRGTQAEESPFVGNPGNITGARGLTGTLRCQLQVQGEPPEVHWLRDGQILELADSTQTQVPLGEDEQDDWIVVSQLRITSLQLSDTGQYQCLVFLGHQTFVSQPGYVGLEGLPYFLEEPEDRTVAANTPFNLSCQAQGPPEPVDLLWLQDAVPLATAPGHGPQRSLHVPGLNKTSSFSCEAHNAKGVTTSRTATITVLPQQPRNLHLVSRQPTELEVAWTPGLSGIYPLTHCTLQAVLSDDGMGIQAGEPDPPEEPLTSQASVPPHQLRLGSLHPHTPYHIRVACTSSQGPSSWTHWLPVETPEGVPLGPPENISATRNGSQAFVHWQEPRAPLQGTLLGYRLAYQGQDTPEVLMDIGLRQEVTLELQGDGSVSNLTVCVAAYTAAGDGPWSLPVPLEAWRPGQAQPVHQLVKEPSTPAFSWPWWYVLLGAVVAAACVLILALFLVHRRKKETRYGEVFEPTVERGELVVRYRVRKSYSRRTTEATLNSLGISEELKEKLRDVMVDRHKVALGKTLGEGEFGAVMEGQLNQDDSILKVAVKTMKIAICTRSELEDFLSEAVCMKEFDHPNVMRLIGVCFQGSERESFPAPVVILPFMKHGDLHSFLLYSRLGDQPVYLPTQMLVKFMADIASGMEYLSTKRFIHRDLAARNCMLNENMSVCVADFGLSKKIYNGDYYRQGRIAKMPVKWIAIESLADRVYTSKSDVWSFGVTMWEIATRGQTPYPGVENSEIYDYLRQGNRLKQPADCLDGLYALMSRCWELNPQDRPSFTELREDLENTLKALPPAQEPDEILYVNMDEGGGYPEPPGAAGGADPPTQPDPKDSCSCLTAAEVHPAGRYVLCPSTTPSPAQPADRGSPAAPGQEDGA

PDGFRB = PDGFRB (Homo sapiens, UniProt P09619); test: KINOMEscan profiling at […]; type: binding; design: gene PDGFRB; kinase domain
PDGFRB, sequence (P09619 600-962 limits assumed): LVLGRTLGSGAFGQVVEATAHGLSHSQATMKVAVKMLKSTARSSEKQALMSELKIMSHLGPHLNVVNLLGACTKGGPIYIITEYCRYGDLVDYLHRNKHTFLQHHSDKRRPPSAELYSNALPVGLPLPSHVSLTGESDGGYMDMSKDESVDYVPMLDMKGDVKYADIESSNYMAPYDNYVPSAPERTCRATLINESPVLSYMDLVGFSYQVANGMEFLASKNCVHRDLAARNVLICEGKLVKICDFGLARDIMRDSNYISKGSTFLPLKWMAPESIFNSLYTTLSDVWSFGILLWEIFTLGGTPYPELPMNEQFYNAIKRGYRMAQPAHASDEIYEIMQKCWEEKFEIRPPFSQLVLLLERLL

TIE2 = TIE2 (Homo sapiens, UniProt Q02763); test: KINOMEscan profiling at […]; type: binding; design: gene TEK; kinase domain
TIE2, sequence (Q02763 770-1124 limits assumed): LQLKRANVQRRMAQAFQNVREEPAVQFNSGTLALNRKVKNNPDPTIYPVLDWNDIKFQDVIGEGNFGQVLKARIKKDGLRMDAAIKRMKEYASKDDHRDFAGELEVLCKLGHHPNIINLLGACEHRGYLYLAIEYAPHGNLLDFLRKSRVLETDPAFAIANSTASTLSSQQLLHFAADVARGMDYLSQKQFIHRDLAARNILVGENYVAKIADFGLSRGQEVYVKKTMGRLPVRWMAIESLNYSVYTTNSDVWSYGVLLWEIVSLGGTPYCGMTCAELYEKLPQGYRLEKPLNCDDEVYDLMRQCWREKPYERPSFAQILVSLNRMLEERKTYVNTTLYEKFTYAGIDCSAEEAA

FLT3 [4] = biological target: FLT3 (Homo sapiens, UniProt P36888); test: biochemical; design: KINOMEscan (DiscoverX) competition binding screen of 97 human kinases, percent of control at 10 uM; details: binding competition, % of control; read-out: RU-301 %Ctrl @ 10000nM
Procedure: as §1

KIT [5] = biological target: T2, KIT; test: biochemical; design: KINOMEscan (DiscoverX) competition binding screen of 97 human kinases, percent of control at 10 uM; details: binding competition, % of control; read-out: RU-301 %Ctrl @ 10000nM
Procedure: as §1

AXL [6] = biological target: AXL (Homo sapiens, UniProt P30530); test: biochemical; design: KINOMEscan (DiscoverX) competition binding screen of 97 human kinases, percent of control at 10 uM; details: binding competition, % of control; read-out: RU-301 %Ctrl @ 10000nM
Procedure: as §1
Target sequence in this assay (P30530 whole entry): as the sequence (P30530 whole entry) above

ABL1-phosphorylated = biological target: T5, ABL1-phosphorylated (Homo sapiens, UniProt P00519); test: biochemical; design: KINOMEscan (DiscoverX) competition binding screen of 97 human kinases, percent of control at 10 uM; details: binding competition, % of control; read-out: RU-301 %Ctrl @ 10000nM
T5 construct: phosphorylated
T5 sequence (P00519 whole entry): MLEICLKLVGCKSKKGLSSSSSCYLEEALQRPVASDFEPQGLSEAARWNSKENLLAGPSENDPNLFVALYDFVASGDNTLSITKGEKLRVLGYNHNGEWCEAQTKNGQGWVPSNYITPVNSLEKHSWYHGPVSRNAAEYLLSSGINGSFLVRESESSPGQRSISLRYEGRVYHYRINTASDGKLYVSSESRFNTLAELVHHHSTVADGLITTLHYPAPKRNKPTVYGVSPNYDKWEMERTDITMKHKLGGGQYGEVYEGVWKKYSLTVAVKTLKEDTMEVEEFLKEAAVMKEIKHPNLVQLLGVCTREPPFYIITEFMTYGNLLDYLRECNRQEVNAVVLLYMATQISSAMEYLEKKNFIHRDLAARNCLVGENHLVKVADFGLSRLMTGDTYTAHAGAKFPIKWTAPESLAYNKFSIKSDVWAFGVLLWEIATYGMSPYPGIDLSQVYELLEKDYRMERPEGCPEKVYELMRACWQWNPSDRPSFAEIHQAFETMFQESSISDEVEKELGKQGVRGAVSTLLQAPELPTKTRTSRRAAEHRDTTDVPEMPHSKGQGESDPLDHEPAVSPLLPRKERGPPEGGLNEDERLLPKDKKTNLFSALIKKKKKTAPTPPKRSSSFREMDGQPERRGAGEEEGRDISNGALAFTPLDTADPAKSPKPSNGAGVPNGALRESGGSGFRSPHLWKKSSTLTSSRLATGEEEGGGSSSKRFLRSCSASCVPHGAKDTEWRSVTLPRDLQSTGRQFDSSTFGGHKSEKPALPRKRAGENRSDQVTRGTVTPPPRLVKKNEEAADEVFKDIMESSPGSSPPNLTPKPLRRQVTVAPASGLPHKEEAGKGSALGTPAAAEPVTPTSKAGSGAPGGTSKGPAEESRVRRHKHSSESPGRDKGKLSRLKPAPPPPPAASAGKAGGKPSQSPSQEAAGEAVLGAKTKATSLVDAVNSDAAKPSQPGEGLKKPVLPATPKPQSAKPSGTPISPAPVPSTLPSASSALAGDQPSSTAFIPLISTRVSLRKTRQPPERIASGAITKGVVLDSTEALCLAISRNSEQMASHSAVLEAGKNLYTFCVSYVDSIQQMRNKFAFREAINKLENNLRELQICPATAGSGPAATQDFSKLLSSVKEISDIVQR
Procedure: as §1

Axl [7] = biological target: T6, Axl (Homo sapiens, UniProt P30530+Q14393); test: Gas6-induced hAxl/IFN-γR1 CHO reporter (pSTAT1) inhibition; sAxl-Gas6 pull-down partially inhibited; type: cell-based
T6 construct: extracellular and trans-membrane domain of Axl fused to IFN-γR1 intracellular domain; with Gas6

VEGFR2, sequence (P35968 789-1356 limits assumed): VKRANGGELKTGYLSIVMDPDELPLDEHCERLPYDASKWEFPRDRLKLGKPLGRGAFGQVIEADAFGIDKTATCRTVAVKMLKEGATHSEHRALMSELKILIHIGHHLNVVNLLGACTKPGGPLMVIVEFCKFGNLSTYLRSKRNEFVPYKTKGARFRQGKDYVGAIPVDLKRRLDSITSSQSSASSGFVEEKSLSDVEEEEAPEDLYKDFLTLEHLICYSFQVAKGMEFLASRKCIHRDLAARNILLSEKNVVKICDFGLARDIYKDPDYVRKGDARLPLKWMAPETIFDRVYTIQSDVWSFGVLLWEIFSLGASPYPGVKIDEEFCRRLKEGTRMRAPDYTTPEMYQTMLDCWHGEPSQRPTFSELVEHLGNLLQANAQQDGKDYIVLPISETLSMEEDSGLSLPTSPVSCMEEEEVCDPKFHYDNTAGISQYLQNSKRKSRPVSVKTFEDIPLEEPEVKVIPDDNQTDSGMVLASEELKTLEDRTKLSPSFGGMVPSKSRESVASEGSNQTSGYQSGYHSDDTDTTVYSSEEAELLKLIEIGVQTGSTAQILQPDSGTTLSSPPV
T1 sequence (P07949 724-1016 limits assumed): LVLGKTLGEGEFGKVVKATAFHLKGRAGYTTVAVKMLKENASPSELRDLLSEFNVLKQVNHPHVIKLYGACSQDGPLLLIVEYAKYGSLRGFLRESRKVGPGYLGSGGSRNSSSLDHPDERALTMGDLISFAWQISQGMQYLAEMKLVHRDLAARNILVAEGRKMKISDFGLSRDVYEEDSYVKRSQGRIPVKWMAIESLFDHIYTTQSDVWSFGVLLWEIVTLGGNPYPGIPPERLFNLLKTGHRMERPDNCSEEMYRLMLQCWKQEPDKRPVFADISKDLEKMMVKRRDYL

| percent of control binding at 10 µM (PIM1; read-out: R428 %Ctrl @ 10000nM, binding competition) | R428 %Ctrl @ 10000nM (AXL [3]) | remaining binding at 10 µM (FLT3 [4]) | remaining binding at 10 µM (PIM1; binding competition, % of control, read-out: RU-301 %Ctrl @ 10000nM) | remaining binding at 10 µM (KIT [5]) | remaining binding at 10 µM (AXL [6]) | remaining binding at 10 µM (ABL1-phosphorylated) | IC50 (Axl [7]) | Compound | KINOMEscan profiling at 10 uM (RET) | KINOMEscan profiling at 10 uM (KIT [1]) | KINOMEscan profiling at 10 uM (VEGFR2) | KINOMEscan profiling at 10 uM (Abl) | KINOMEscan profiling at 10 uM (FLT3 [2]) | KINOMEscan profiling at 10 uM (PDGFRB) | KINOMEscan profiling at 10 uM (TIE2) |
| --- | --- | --- | --- | --- | --- | --- | --- | --- | --- | --- | --- | --- | --- | --- | --- |
| 67% | 0.1% | – | – | – | – | – | – | Nc1nc(Nc2ccc3c(c2)CC[C@@H](N2CCCC2)CC3)nn1-c1cc2c(nn1)-c1ccccc1CCC2 [R428] | R428 also bound to several other kinases, including Abl, Aurora kinases, KIT, PDGFR A and B, RET | R428 also bound to several other kinases, including Abl, Aurora kinases, KIT | KIT, PDGFR A and B, RET, TIE2, VEGFR2, JAK2, JAK3 and FLT3 kinases | R428 also bound to several other kinases, including Abl, Aurora kinases, KIT | KIT, PDGFR A and B, RET, TIE2, VEGFR2, JAK2, JAK3 and FLT3 kinases | R428 also bound to several other kinases, including Abl, Aurora kinases, KIT, PDGFR A and B | KIT, PDGFR A and B, RET, TIE2, VEGFR2, JAK2, JAK3 and FLT3 kinases |
| – | – | 99% | 82% | 96% | 89% | 81% | low micromolar | Cc1cc(CSc2ccccc2C(=O)NCCNc2ccc(C(F)(F)F)cc2[N+](=O)[O-])on1 [RU-301] | – | – | – | – | – | – | – |

Source: article PMC5341070, “Small molecule inhibitors block Gas6-inducible TAM activation and tumorigenicity” (Scientific Reports, 2017)
